# Data: patent US5686423A, “Di-and tri-peptide mimetic compounds for Parkinson's disease” (Department of Health, the Executive Yuan, Republic of China, priority 1996, dated 1997)
# Residues, ends and D or L forms follow the SMILES beside them.
# Key:
# [1] = test system: 6-hydroxydopamine-lesioned male Wistar rats; test: Rotational behavior of nigrostriatal-lesioned rats elicited by (+)-methamphetamine; format: in vivo, rat; details: for rotation: control saline 552 ± 47
# Source text: Anti-Parkinsonism effect was determine by virtue of measuring the change in rotational behavior of 6-hydroxydopamine-lesioned male Wistar rats [Hudson J. L.; Levin. D. R.; Hoffer, B. J. A Sixteen-Channel Automated Rotometer System For Reliable Measurement of Turning Behavior in 6-Hydroxydopamine Lesioned and Transplanted Rats. Cell Transplantation 1993, 2, 507-514; Hudson J. L, Van Horne C. G.; Stromberg I.; Brock. S.; Clayton, J.; Masserano, J.; Hoffer, B. J.; Gerhardt, G. A. Correlation of Apomorphine and Amphetamine Induced Turning With Nigrostriatal Dopamine Content in Unilateral 6-Hydroxydopamine Lesioned Rats. Brain Res. 1993, 626, 167-174].
# Twenty male Wistar rats weighing 150-175 grams were used. Within a 36 h window, all rats were lesioned by the same investigator using the following procedure. Surgical anesthesia was produced by i.p. injection of 30 mg/kg of sodium pentobarbtal. The animals were placed in a stereotaxic frame and the skin over the skull was incised and reflected. Bregma was used as the coordinate origin and a burr-hole was placed in the cranium over the injection site. After a small-needle puncture of the dura and lowering into the brain parenchyma, a solution of […] of 6-hydroxydopamine HCl was injected using a microliter syringe and a 26 gauge dome-tipped needle (AP-4.4 mm, ML 1.3 mm. DV -7.8 mm). The needle was removed after a 1 min delay and the wound was closed. Convalescence occurred in home cages with food and water ad libitum for the duration of the experiment.
# On each testing day, the rats were placed into rotometer bowls and were allowed to acclimatize for 10 min. They then received a subcutaneous dose of (+)-methamphetamine (4 mg/kg in vehicle) and were allowed to move within the bowls for at least 60 min, or until they stopped turning. The rats were returned to the home cages after the experiment until next testing session.
# The degree of dopamine depletion was evaluated by monthly testing of rotational behavior in a multichannel rotometer system after methamphetamine (4 mg/Kg, s.c.) injection.
# [2] = cited from earlier work
# [3] = 37° C., 2 minutes of incubation
# Protocol: Mucosa suspension was prepared from the intestine of male Wistar rats according to the method of Hu et al. [Pharm. […] After abdominal incision the intestinal segment between the beginning of the jejunum and the end of the ileum was removed and everted to let the interior exposed. The mucosal layer was washed with normal saline and then scraped with glass microscope slides. The scraping was collected, diluted 1:9 (v/v) with ice cold isotonic sucrose solution, and ultrasonicated for 200 seconds. The suspension was centrifuged at 2500 rpm for 5 minutes. The supernatant suspension was stored in an ice bath before subjected to degradation study. All the stability studies were conducted right after the mucosa suspension was prepared. One hundred microliter of a methanolic solution of the test compound (1 mg/mL) was diluted with 2.4 mL of an isotonic mannitol buffer solution (pH=6.5) as the stock solution. One hundred microliter of the stock solution was mixed with equal volume of the mucosal suspension. The mixture was incubated in a 37° C. water bath and subjected to sampling at time intervals between zero to 60 minutes. Two hundred microliter of each sampled solution was denatured with MeOH (0.8 mL) and centrifuged at 14000 rpm for 5 minutes. Twenty to one hundred microliters each of the solution was subjected to HPLC assay on a Lichrospher 100 RP-18 column (E. Merck, 5 μm, 250×3.9 mm). […]
# pulmonary artery = details: continuous perfusion of 1 mg/mL for one min
# Protocol: (§1) Each experiment was repeated at least three times. The mean responses before and after drug treatment were compared by means of Student's t test, with p<0.05, indicating significance. The contractile force of both pulmonary artery and vas deferences was elicited after continuous perfusion of dopamine (1 mg/mL) for one min.
# (§2) Male guinea pigs (250-350 g) were stunned and bled. The vas deferences and pulmonary artery were isolated. A piece of the smooth muscle (about 1 mm wide and 7 mm long) was dissected. The isolated part was mounted vertically on an organ bath (1 mL capacity), kept at 35° C. and superfused with a physiological solution at a constant rate of about 2 mL /min (35° C.). The normal physiological solution had the following composition: NaCl (117 mM), KCl (5.9 mM), CaCl2 (2.4 mM), MgCl2 (1.2 mM), D-glucose (11.8 mM) and Tris 20 (pH 7.4 at 35° C.), aerated with 100% oxygen. Drugs tested were perfused for one min and then superfused with normal physiological solution or otherwise indicated. Tension was recorded isometrically by means of a Grass FT03 tranducer connected to a Grass model 7E polygraph or by a Gould UC2 transducer connected to a Gould 2200S recorder. Each experiment was repeated at least three times with different preparations.
# vas deferences = details: continuous perfusion of 1 mg/mL for one min
# Protocol: as §1, §2
# [4] = rat jejunal perfusion, perfusate 0.1 mM; for plasma conc. (mean ± s.e.m): blood drawn after 90 min perfusion
# Protocol: The intestinal absorption of the prodrugs was then investigated by measuring the plasma concentration in rats upon in situ single-pass rat jejunal perfusion, and by determining the fraction of absorption in rabbits with data obtained from single-dose intra-artery injection and oral administration.
# Perfusion solutions containing 5 mM KCl, 100 mM NaCl, 10 mM MES, 6 mM D-glucose, the testing compound, and 0.02% ascorbic acid as an anti-oxidant, were adjusted to pH 6 with NaOH. Osmolarity, measured by a Wescor 5500 vapor pressure osmometer (Wescor Company, Logan, Utah, U.S.A.), was adjusted to 300±10 mOsm/kg using sodium chloride. […] In order to prevent test compounds from oxidation, perfusion solutions were freshly prepared with nitrogen gas bubbled through for 10 min before each perfusion experiment.
# Male Wistar Rats were fasted overnight (16-20 h) prior to anesthesia induced by i.m. injection of urethane (1.5 g/kg body weight). Following induction of anesthesia, rats were put on a heating pat to maintain body temperature. A midline longitudinal incision was made and a 5 to 10 cm jejunal segment was cannulated at the distal end to drain perfusates into collecting tubes. The entire surgical area was then covered with parafilm to minimize temperature reduction through evaporation. Tubing and syringes were covered with aluminum foil to retard the oxidation of testing compounds. Perfusion solution was pumped through the jejunal segment at a flow rate of 0.2 mL/min by a syringe pump (Stoelting, KD Scientific, U.S.A.). The jejunal segment was prewashed initially with drug-free buffer for 10 min and then pumped with test solution. Outlet tubing samples were collected every 10 min for 6 collection periods after water and solute transport reached steady-state. After 90 min perfusion, blood sample (1-2 mL) was drawn by cardiac puncture. The blood samples were centrifuged at 3000 rpm for 10 min, the plasma were separated and stored at -20° C. before analysis. The samples were filtered through 0.2 μm membrane filters before injecting into HPLC system.
# Assays of L-dopa and test compounds were performed on HPLC consisting an autosampler (Model 717, Waters, Millipore, Milford, Mass., U.S.A.), a solvent delivery pump (Model 600E, Waters), a tunable absorbence detector (Model 484 or 486, Waters), and a PC 486 computer with a chromatography manager software (Millennium 2010, Millipore). L-Dopa from the perfusate was assayed on a Spheri 5RP-18 column (ABI, 5 μm, 250×4.6 mm) at flow rate of 1.0 mL/min with mobile phase comprising MeOH:0.05M NH4 H2 PO4 buffer (pH 4.6) containing 0.02M sodium 1-pentanesulfonate=10:90 (v/v). […] Standards were injected during each assay. Linearity of standard peak area ratios was validated. Numerical computation on data were performed on Statworks and are represented as mean±standard error of mean (s.e.m) for n experiments. Treatment differences were evaluated by t test.
# [5] = Single dose oral and intra-artery bioavailability study in rabbits; details: oral vs intra-artery, 10 mg/Kg, six rabbits, mean ± s.e.m.
# Protocol: Prodrug 1a was subjected to single dose oral and intra-artery (i.a.) administrations on 6 fasted New Zealand white rabbits for oral bioavailability study.
# Single intra-artery dose of prodrug 1a or the parent drug was administered in six fasted New Zealand white rabbits, weighting 2.5-3.0 Kg, via ear artery. Blood samples were withdrawn with heparinized syringes from the contralateral artery at time intervals ranged from 1 min to 3.5 h. Freshly drawn heparinized blood was treated with extraction buffer (1 mol of Tris and 20 g of EDTA per liter, pH 8.6) and then extracted with alumina (100 g). The alumina was extracted with acidic buffer and the extract subjected to HPLC analysis.
# After wash-out period, the same rabbits were used for single oral dose administration of prodrug la with a feeding tube. […] Prodrug 1a and dihydroxybenzylamine,used as an internal standard, were detected with electrochemical detector at 0.750 V of oxidation potential. The maximal plasma concentration (Cmax) and the time to the maximal plasma concentration (tmax) were determined. The area under the plasma concentration-time profile (AUC) and the terminal half-life (t1/2) were calculated. Fraction of absorption was calculated from the pharmacokinetic parameters (tmax, Cmax, AUC, t1/2) obtained from oral and intra-artery administrations.
# [6] = i.p. 1-2 hours prior to (+)-methamphetamine
molecule,measurement,setting,value
"NC(Cc1ccc(O)c(O)c1)C(=O)O [L-dopa, 2-amino-3-(3,4-dihydroxyphenyl)propanoic acid]",rotation,"[1]; 4.2 mg/kg i.p., (+)-methamphetamine injected 1 h after treatment",287 ± 86 turns/h
same,AUCCSF /AUCplasma,"[2]; Parkinson disease, literature (Olanow et al. 1991)",12/100
same,oral bioavailability,[2]; at up to 1000 mg/day,33%
NCC(=O)N[C@@H](Cc1ccccc1)C(=O)O [L-glycine-L-phenylalanine] (H-Gly-Phe-OH),fraction degraded in rat intestinal mucosa suspension,[3],81%
NCCc1ccc(O)c(O)c1 [dopamine],contraction of pulmonary artery (resting tension),pulmonary artery,elicited
same,contraction of vas deferences (resting tension),vas deferences,elicited
D-Phenylglycine-L-serine-L-dopa [2a],plasma conc. (mean ± s.e.m),[4],8.49 ± 1.36
D-p-hydroxyphenylglycine-L-dopa [1b],plasma conc. (mean ± s.e.m),[4],0.60 ± 0.01
D-p-hydroxyphenylglycine-L-proline-L-dopa [compound 2d],rotation,"[1]; 9.6 mg/kg i.p., (+)-methamphetamine injected 1 h after treatment",223 ± 95 turns/h
same,rotation,"[1]; 9.6 mg/kg i.p., (+)-methamphetamine injected 2 h after treatment",247 ± 67 turns/h
same,anti-rotation activity compared with L-dopa (in words),[1]; [6],slightly higher than that of L-dopa
same,effect on (+)-methamphetamine-induced rotation (in words),[1]; [6],significantly prohibited
D-p-hydroxyphenylglycine-L-serine-L-dopa [2b],"plasma concentration, fold higher than that of L-dopa",[4],60-100 fold
same,plasma conc. (mean ± s.e.m),[4],62.1 ± 3.53
D-phenylglycine-L-dopa [compound 1a],"plasma concentration, fold higher than that of L-dopa",[4],60-100 fold
same,plasma conc. (mean ± s.e.m),[4],64.65 ± 5.45
same,fraction of absorption,[5],76 ± 24%
L-dopa-D-phenylglycine [1c],"plasma concentration, fold higher than that of L-dopa",[4],60-100 fold
same,plasma conc. (mean ± s.e.m),[4],104.00 ± 12.98
